Results on 2 molecules are retold here after patent US20240415989A1, “RADIOLABELED COMPOUND, AND PRECURSOR COMPOUND THEREOF, PREPARATION METHOD THEREFOR, AND APPLICATION THEREOF” (priority 2021, published 2024).

Series [1] can be described thus: In vitro stability in normal saline (radiochemical purity by TLC). It counts as physicochemical. The protocol:
Four EP tubes were taken and marked as numbers (1) to (4) in sequence, in which 0.1 ml of normal saline was added to numbers (1) and (2), respectively, 0.1 ml of fresh human serum diluted 10 times was added to numbers (3) and (4), respectively, and then 1.0 mci of freshly prepared ^68Ga-DOTA-ibandronic acid was added to these 4 tubes, respectively. Numbers (1) and (3) were placed at room temperature (25±2° C.) and numbers (2) and (4) were placed in a 37° C. metal bath for incubation. The radiochemical purity values of numbers (1) to (4) were measured using a thin layer paper chromatography (TLC) at 10 min, 30 min, 1 h, 2 h, 3 h, 4 h, respectively.

Series [2] in a line: Lipid-water distribution coefficient (n-octanol/deionized water). It is filed as physicochemical. As for the experimental part:
Three 5 ml centrifuge tubes were taken, and numbered as A-(1), A-(2) and A-(3), respectively. 0.5 ml of n-octanol, 0.485 ml of deionized water and 0.25 ml of freshly prepared ^68Ga-DOTA-ibandronic acid with about 0.5 mci were added to each tube, and the centrifuge tubes were shaken by a vortex mixer for 20 minutes, then centrifuged at 2000 r/min for 5 minutes, from which 0.1 ml of upper liquid (organic phase) was respectively collected into 3 corresponding test tubes (numbered as B-(1), B-(2), B-(3), respectively), and 0.1 ml of lower liquid (aqueous phase) was respectively collected into 3 corresponding test tubes (numbered as C-(1), C-(2), C-(3), respectively). The total radioactivity count of the organic phase and that of the aqueous phase were measured by γ counter, respectively, and the lipid-water distribution coefficient lgP was calculated by formula.

The subject of series [3] is plasma protein. It is filed as in vitro ADME. Particulars: human. The protocol: 1 mL of fresh human plasma anticoagulated with heparin was taken for later use. Three EP tubes were taken and numbered as A-(1), A-(2), and A-(3), and were each added with 0.1 ml of fresh human plasma and 0.25 ml of freshly prepared ^68Ga-DOTA-ibandronic acid with about 0.5 mci. Then they were incubated in a metal bath at 37° C. for 30 minutes. Three 5 ml centrifuge tubes were taken and numbered as B-(1), B-(2), and B-(3). The incubated solutions were transferred to the corresponding centrifuge tubes, respectively. Then 1 ml of 25% trichloroacetic acid solution was added to each centrifuge tube, mixed thoroughly, then centrifuged at 2000 r/min for 5 minutes. The supernatants were respectively collected into 3 corresponding test tubes (numbered as C-(1), C-(2), C-(3), respectively). The centrifugation and supernatant collection were repeated 3 times. The total radioactivity count of the precipitations in the centrifuge tubes and that of the supernatants in the test tubes were measured by a γ counter, respectively, and the plasma protein binding rate (PPB) was calculated.

In series [4] the test system is PC-3, H1975, MDA-MB-231 bone metastasis models. In words: Therapeutic effect on tumor-bearing mice, free movement pain behavior scoring. It is filed as in vivo, nude mice. As for the experimental part:
In this experimental example, the therapeutic effects of ^177Lu-DOTA-ibandronic acid of the present disclosure on tumor-bearing mice (PC-3, H1975, MDA-MB-231 bone metastasis models) were investigated. The ^177Lu-DOTA-ibandronic acid used in this experimental example was prepared according to the method of Example 6.
(1) Establishment of tumor-bearing mouse models: 24 SPF male nude mice and 12 SPF female nude mice were taken, and anesthetized with isoflurane. Then the skin around the left knee joint was disinfected, and the left hind limb was bent. An insulin needle (29G needle) was inserted into the tibia vertically from concave point of the articular fossa of the tibia, slowly rotated and inserted into the medullary cavity, to inject 25 μl of cell culture (approximately 2×10^6) of PC-3 (12 males), H1975 (12 males), and MDA-MB-231 (12 females). Then disinfection was carried out, and the holes were sealed with sterile bone wax. The animals were placed on a 37° C. hot-plate for rewarming. After resuscitation, they were returned to the cage and continued to be raised.
(2) Testing of tumor-bearing mouse models: After 4 weeks of inoculation, 36 nude mice were scanned using Micro-CT, respectively.
(3) Methods of different treatments and grouping: The 36 successfully modelled tumor-bearing mice were randomly divided into 4 groups. Among them, 2 groups were injected with ^177Lu-DOTA-ibandronic acid with low and high radioactivity (100 μCi, 500 μCi) into the tail vein, respectively, 3 animals in each group; and the animals in the blank control groups were injected with normal saline, and divided into a small volume group and a large volume group (10 μl, 50 μl), 3 animals in each group.
(4) Detection and results of treatment effect: Free movement pain behavior scoring was carried out on days 0, 7, 14, 21, 28, and 35, and used as the main indicator of bone pain relief in the tumor-bearing mice. At the corresponding time points, the tumor-bearing mice were placed in a transparent smooth flat-bottomed plastic box. […]

Where [5] appears, read: high activity 500 μCi, compared with all groups.

The structures appear in SMILES notation.

As for `CN(CCCCNC(=O)CN1CCN(CC(=O)O)CCN(CC(=O)O)CCN(CC(=O)O)CC1)CCC(O)(P(=O)(O)O)P(=O)(O)O.[68Ga]` [^68Ga-DOTA-ibandronic acid], the Radiochemical purity in series [1] (37° C., 10 min) came to 99%; in series [1] (37° C., 30 min) it was 96%; in series [1] (37° C., 1 h), 96%; in series [1] (37° C., 2 h) it was 92%; in series [1] (37° C., 3 h), 90%; in series [1] (37° C., 4 h), 87%. Also, the Radiochemical purity came out at 98% in series [1] (room temperature, 10 min); 97% in series [1] (room temperature, 30 min); 95% in series [1] (room temperature, 1 h); 95% in series [1] (room temperature, 2 h); 95% in series [1] (room temperature, 3 h); 93% in series [1] (room temperature, 4 h). For the same molecule, in series [2], the “lipid-water distribution coefficient lgP” value is on record as −2.33. Moreover, the “plasma protein binding rate (PPB)” value in series [3] is listed as 81%.

Regarding `CN(CCCCNC(=O)CN1CCN(CC(=O)O)CCN(CC(=O)O)CCN(CC(=O)O)CC1)CCC(O)(P(=O)(O)O)P(=O)(O)O.[177Lu]` [^177Lu-DOTA-ibandronic acid], the “therapeutic efficacy versus control group” value in series [4] (different doses (100 μCi, 500 μCi) versus normal saline) is given as “higher than that of the corresponding control group”. Besides, in series [4] (setting [5]), the bone pain relief result is “relieved to the greatest extent” and the “survival rate within 5 weeks of administration” value is “relatively highest”.
